Assay: Pharmacokinetics screening in rats (biliary and urinary excretion, residual tissue content of gadolinium by ICP-AES)
Type: in vivo
Conditions: for Biliary % of the injected dose / Urinary % of the injected dose: anaesthetised CD(SD)BR male rats, i.v. 0.1 mmol/kg
Experimental: The experimentation was performed with the complex compound of example 1.
The screening was performed in 3 anaesthetised CD(SD)BR male rats (Charles River Italia).
The animals were maintained according to EEC Council Directive […] as included in Italian law DL116/92 (experimental typology KIN 3).
The contrast agent was injected in the vena saphena at the single dose of 0.1 mmol.kg^−1, injection rate of 6 mL-min^−1.
After the administration of the complex compound, the collection of the biological fluids in the anaesthetised rats was performed by cannulation of urinary bladder and biliary duct. The urine was collected at 0 to 60, 60 to 120, 120 to 240, 240 to 480 min after injection; the bile at −30 to 0, 0 to 15, 15 to 30, 30 to 60, 60 to 120, 120 to 240, 240 to 480 min after injection.
Animals were killed at the end of the studies by exanguination from abdominal aorta.
Blood, liver and kidneys were collected after the sacrifice for the assay of gadolinium by inductively coupled plasma atomic emission ICP-AES.

[1] = anaesthetised rats, intravenous, 0 to 480 min period
[2] = anaesthetised rats, intravenous, at 480 min after administration

Gadolinium complex of [3α[3(S),4(S)],5β,12α]-3-[[[trans-3,4-bis[[[5-[bis[2-[bis(carboxymethyl)amino]ethyl]amino]-5-carboxypentyl]amino]carbonyl]-1-pyrrolidinyl]carbonyl]oxy]-12-hydroxycholan-24-oic acid salified with sodium (1:5) [Example 1]
Biliary % of the injected dose (collection time 0 to 15 min): 0.0102 ± 0.0010 % of the injected dose | Biliary % of the injected dose (collection time 0 to 30 min): 0.0208 ± 0.0012 % of the injected dose | Biliary % of the injected dose (collection time 0 to 60 min): 0.0374 ± 0.0023 % of the injected dose | Urinary % of the injected dose (collection time 0 to 60 min): 11.2 ± 4.6 % of the injected dose | Biliary % of the injected dose (collection time 0 to 120 min): 0.0561 ± 0.0052 % of the injected dose | Urinary % of the injected dose (collection time 0 to 120 min): 18.6 ± 5.0 % of the injected dose | Biliary % of the injected dose (collection time 0 to 240 min): 0.0950 ± 0.0073 % of the injected dose | Urinary % of the injected dose (collection time 0 to 240 min): 27.9 ± 5.3 % of the injected dose | Biliary % of the injected dose (collection time 0 to 480 min): 0.175 ± 0.020 % of the injected dose | Urinary % of the injected dose (collection time 0 to 480 min): 36.2 ± 2.7 % of the injected dose | biliary excretion [1]: 0.175 % of ID | urinary excretion [1]: 36 % of ID | residual content in kidney [2]: 6.7 % of the injected dose | residual content in liver [2]: 2.564 % of the injected dose | residual content in plasma [2]: 14.3 % of the injected dose
